Assay results from EP2945947B1, “INHIBITING THE TRANSIENT RECEPTOR POTENTIAL A1 ION CHANNEL” (Merck Sharp & Dohme Corp., priority 2013, dated 2014).
pIC50: −log10 of the molar value. Values after ≈ are worked out from the molar mass of the structure shown. Read-outs that look alike come from different tables or passages of the source. Marks after values point to notes of the source that are not given here.

Assays:
[1] = Aqueous solubility in buffered solutions, HPLC (Example 2); type: physicochemical; details: kinetic from dmso stock, ambient temperature
[2] = target: human TRPA1 (Homo sapiens, UniProt O75762); test: Inhibition of the TRPA1 ion channel, whole cell patch configuration (Example 1); type: cell-based; details: current activation 10 µM AITC, read-out: Human TRPA1 IC50 Inward Current
Chain of human TRPA1 (O75762 whole entry): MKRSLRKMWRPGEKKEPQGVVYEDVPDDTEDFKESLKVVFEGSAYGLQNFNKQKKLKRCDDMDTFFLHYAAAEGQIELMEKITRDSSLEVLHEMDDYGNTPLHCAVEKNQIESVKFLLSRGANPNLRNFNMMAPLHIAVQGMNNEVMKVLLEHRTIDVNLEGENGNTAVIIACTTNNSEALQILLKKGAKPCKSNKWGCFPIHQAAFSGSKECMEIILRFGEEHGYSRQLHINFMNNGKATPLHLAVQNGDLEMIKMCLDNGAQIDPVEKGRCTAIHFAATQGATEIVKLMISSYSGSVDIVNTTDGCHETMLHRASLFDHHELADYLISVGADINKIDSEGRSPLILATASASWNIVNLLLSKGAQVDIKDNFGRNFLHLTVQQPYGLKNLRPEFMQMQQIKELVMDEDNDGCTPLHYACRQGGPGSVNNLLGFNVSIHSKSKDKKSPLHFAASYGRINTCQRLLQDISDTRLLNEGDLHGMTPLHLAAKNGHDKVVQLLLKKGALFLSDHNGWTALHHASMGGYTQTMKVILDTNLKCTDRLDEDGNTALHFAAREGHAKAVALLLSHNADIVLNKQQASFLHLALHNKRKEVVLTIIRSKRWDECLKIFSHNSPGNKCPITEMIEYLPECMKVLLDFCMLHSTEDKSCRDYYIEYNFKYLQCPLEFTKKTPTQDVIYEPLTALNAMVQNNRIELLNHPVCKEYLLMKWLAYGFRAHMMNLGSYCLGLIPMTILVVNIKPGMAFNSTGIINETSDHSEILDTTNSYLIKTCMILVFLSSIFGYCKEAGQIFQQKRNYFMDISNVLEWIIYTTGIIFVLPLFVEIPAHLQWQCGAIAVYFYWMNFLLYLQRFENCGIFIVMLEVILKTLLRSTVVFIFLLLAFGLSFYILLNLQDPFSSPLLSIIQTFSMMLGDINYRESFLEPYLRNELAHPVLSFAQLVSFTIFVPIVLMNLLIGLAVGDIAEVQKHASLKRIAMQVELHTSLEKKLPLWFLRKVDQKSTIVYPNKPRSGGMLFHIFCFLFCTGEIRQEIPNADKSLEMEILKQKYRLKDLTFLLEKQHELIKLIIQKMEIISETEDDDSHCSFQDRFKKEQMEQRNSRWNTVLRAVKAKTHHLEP
Protocol: Compounds of Formula (Ia) inhibit the TRPA1 channel, as measured using the method of Example 1. […] Data for TRPA1 inhibition and for TRPA1 selectivity was obtained by this method for the indicated compounds of Formula (Ia), with the relevant data included in Tables 1a - f below. All currents were recorded in whole-cell configuration using EPC-9 and EPC-10 amplifiers and Patchmaster software (HEKA). […] The standard pipette solution consisted of 140mM CsAsp, 10 mM EGTA, 10 mM HEPES, 2.27 mM MgCl2, 1.91 mM CaCl2, 4 mM MgATP, and 0.1-0.3 mM Na2GTP, with pH adjusted to 7.2 with CsOH. In addition, a solution containing 145 mM CsCl, 10 mM HEPES, 10 mM EGTA and 1 mM MgCl2 (pH 7.2 adjusted with CsOH) can be used. The standard bath solution contained 150 mM NaCl, 10 mM HEPES, 10 mM glucose, 4.5 mM KCl, 1 mM EGTA, 3 mM MgCl2, with pH adjusted to 7.4 with NaOH. In some instances, 2 mM CaCl2 was added in place of EGTA and the concentration of MgCl2 was reduced to 1 mM.
Data were collected either by continuous recordings at -60 mV or by applying voltage ramps from a holding potential of 0 mV every 4 s. Continuous recordings were collected at 400 Hz and digitally filtered off-line at 10 Hz for presentation. Voltage ramps were applied from - 100 mV to 100 mV over the course of 400 ms, and data were collected at 10 kHz and filtered at 2.9 kHz. Inward and outward currents were analyzed from the ramps at -80 and 80 mV, respectively. Liquid junction potential correction was not used.
Solutions were switched using a gravity-fed continuous focal perfusion system. To achieve rapid temperature changes, two temperature control, and perfusion systems were employed simultaneously. For temperatures ≥ 22°C, a Warner Instruments bipolar temperature controller (TC-344B) and inline heater (SHM-8) were used. […] Temperatures were confirmed using a thermistor (Warner Instruments, TA-29), with temperatures at the recorded cell estimated to be within +/- 2°C of those reported.
The antagonist effects of compounds of Formula (Ia) against human TRPA1 ("hTRPA1") and for some compounds rat TRPA1 ("rTRPA1") in a whole cell patch configuration were evaluated using the in vitro assay described above. The current activation tested was 10 µM AITC, and the tested concentrations ranged from 5 µM and 500 nM. Table 1a (Comparative Compounds)

[3] = system: rats; test: Rodent formalin pain model (Example 3); type: in vivo; details: rat; for Duration of Pain Behavior: first two minutes after formalin, vehicle 88.6
Protocol: Compounds of Formula (Ia) are active in rodent models of pain induced by direct activation of the TRPA1 channel with intraplantar injection of the TRPA1 agonist formalin. Compounds of Formula (Ia) were tested in the formalin-induced pain test reported by Abbott et. al. Pain. 1995 Jan;60(1):91-102. Dubuisson et al. describe a method for assessing pain and analgesia in rats. Briefly, dilute formalin (50 µL of 3 % formalin) is injected into the plantar surface of the hind paw. […] The individual responsible for counting the pain behaviors in a particular study is blinded to the treatment groups.
Table 2 is a data table showing the results from testing compounds of Formula (Ia) in the rodent formalin-induced pain model described in […]. Rats were treated with the compounds of Formula (Ia) at various doses (0.1, 0.3, 1, 1.2, 3, 4, 10, or 30 mg/Kg IV) or with a control composition containing the vehicle (i.e., without a compound of Formula (Ia)). Pain behaviors (flinch, lift, lick, bite) were monitored following intraplantar formalin injection. Referring to Table 2, the minimum effective dose was derived from dose resulting in statistically significant difference in behavior at 0 - 2 min time period as compared with vehicle (p≤0.05).

[4] = system: Female Sprague Dawley rats; test: Rodent acute tolerability test with liver function tests (Example 5); type: in vivo, rat; set-up: key to Alterations in LFT: (↔) indicates blood levels of markers for potential liver damage within normal range; (↑) indicates blood levels of markers for potential liver damage elevated above normal range; details: single IV bolus dose 130 mg/kg, about 24 hours post dose
Protocol: Compounds of Formula (Ia) were assessed for acute tolerability in a rodent model at dose levels ranging from 100 - 200 mg/kg based upon the minimum efficacious dose of each compound. Female Sprague Dawley rats were administered up to a 10 mL/kg dose volume of each compound in 0.9% saline at appropriate concentrations as an intravenous bolus via the lateral tail vein. The animals were observed immediately post dose and for up to twenty four hours post dose and clinical observations were recorded. Additionally, approximately twenty four hours post dose animals were euthanized and blood taken for serum chemistry analysis with a focus on liver function tests (LFTs). The maximum tolerated single dose and LFT results are summarized in Table 3, where (↔) indicates blood levels of markers for potential liver damage within normal range and (↑) indicates blood levels of markers for potential liver damage elevated above normal range. Referring to the data in Table 3, LFT blood levels of markers for potential liver damage remained within normal range for the compounds of Formula (Ia), while LFTs were elevated for Comparator Compounds including 5-10 fold elevation above normal for ALT and AST blood levels observed upon administration of Comparative Compound 1. […]

[5] = system: sheep; test: Sheep model of experimental allergic asthma, Ascaris suum antigen challenge (Example 6); type: in vivo; details: for inhibition of the AHR / inhibition of the EAR / inhibition of the LAR: sheep; for Average Early Airway Response (EAR) / Average Late Airway Response (LAR) / Airway Hyperresponsiveness (AHR): 4 days; for Average Early Airway Response (EAR): average increase in RL 0-4h after challenge; for Average Late Airway Response (LAR): average increase in RL 5-8h after challenge; for Airway Hyperresponsiveness (AHR): ratio of post challenge PC400 to pre challenge PC400
Protocol: Compounds were tested in the sheep model of experimental asthma reported in Abraham WM, Asthma & Rhinitis, 2000: 1205-1227. All animals were tested for both early and late stage airway responses to inhalation challenge with Ascaris suum antigen.
The unsedated sheep were restrained in a cart in the prone position with their heads immobilized. After topical anesthesia of the nasal passages with 2% lidocaine solution, a balloon catheter was advanced through one nostril into the lower esophagus. The animals were intubated with a cuffed endotracheal tube through the other nostril. Pleural pressure was estimated with the esophageal balloon catheter. Lateral pressure in the trachea was measured with a sidehole catheter advanced through and positioned distal to the tip of the endotracheal tube. Transpulmonary pressure, the difference between tracheal and pleural pressure, was measured with a differential pressure transducer catheter system. For the measurement of pulmonary resistance (RL), the proximal end of the endotracheal tube was connected to a pneumotachograph. The signals of flow and transpulmonary pressure were recorded on an oscilloscope recorder, which was linked to a computer for on-line calculation of RL from transpulmonary pressure, respiratory volume (obtained by digital integration) and flow. Analysis of 5-10 breaths were used for the determination of RL in cm H2O / L x sec^-1.
Aerosols of Ascaris suum extract (diluted 20:1 with phosphate buffered saline; 82,000 PNU/ml) were generated using a disposable medical nebulizer (Raindrop^R, Puritan Bennett). The output from the nebulizer was directed into a plastic t-piece, one end of which was connected to the inspiratory port of a Harvard respirator. To better control aerosol delivery, a dosimeter consisting of a solenoid valve and a source of compressed air (20 psi) was activated at the beginning of the inspiratory cycle of the Harvard respirator system for 1 s. The aerosol was delivered at a tidal volume of 500 ml and a rate of 20 breaths per minute. Each sheep was challenged with an equivalent dose of antigen in the control and drug trials. Carbachol aerosols were also generated with this same nebulizer system.
For the carbachol concentration response curves, measurements of RL were repeated immediately after inhalation of buffer and after each administration of 10 breaths of increasing concentrations of carbachol solution (0.25%, 0.5%, 1.0%, 2.0% and 4.0% w/v). To assess airway responsiveness, the cumulative carbachol dose in breath units (BU) that increased RL 400% over the post-buffer value (i.e. PC 400) was calculated from the dose response curve. One breath unit was defined as one breath of a 1% w/v carbachol solution.
Compound 5-T was given at doses of 1, 3 and 10 mg/kg given orally once a day for 3 days and on day 4, 2 hours before antigen challenge. A group of sheep also received a vehicle control.
A pre-challenge (baseline) PC 400 was obtained 1-3 days before the start of dosing. Then on the day of antigen challenge, the sheep received the last dose of Compound 5-T 2h before antigen challenge. Values of lung resistance (RL) were measured at baseline, 1.5 h after drug treatment and, then, serially for 8h after challenge with Ascaris suum antigen. Measurements of RL were obtained 24 h after challenge followed by the 24 h post challenge determination of PC 400. Responses to antigen challenge with drug and/or vehicle treatment were compared to each animal's historical control.
Two groups of animals (n=3) were used for these studies. Group 1 received the vehicle control and the 1 mg/kg dose. Group 2 received the 3 mg/kg dose and the 10 mg/kg dose. A Repeated Measures Analysis of Variance was used to compare the responses within each group to their historical control. If a significant difference was found, then Tukey's post hoc test was used to determine pair wise differences. […]

[6] = sodium bicarbonate buffer in water for injection/5% dextrose, pH 9.0, 50 mM sodium bicarbonate, read-out: pH 9.0 aqueous solubility
[7] = sodium phosphate buffer in water for injection/5% dextrose, pH 7.4, 75 mM sodium phosphate, read-out: pH 7.4 aqueous solubility

SMILES: C[C@H]1CCCN1c1ncc(-c2cncc(N(COP(=O)(O)O)C(=O)[C@H](C)n3cnc4c3c(=O)n(C)c(=O)n4C)n2)cn1 [Compound 3-J, ((S)-2-(1,3-dimethyl-2,6-dioxo-1,2,3,6-tetrahydro-7H-purin-7-yl)-N-(6-(2-((S)-2-methylpyrrolidin-1-yl)pyrimidin-5-yl)pyrazin-2-yl)propanamido)methyl dihydrogen phosphate]
- solubility kinetic at 24 h [1, 6]: > 1000 µg/mL
- solubility kinetic at 24 h [1, 7]: > 1000 µg/mL
- pIC50 [2]: < 7.00
- Minimal Efficacious Dose of Compound in Formalin Model ([3]; IV, statistically significant difference vs vehicle at 0 - 2 min (p≤0.05)): 3 mg/kg
- Duration of Pain Behavior ([3]; dose 3 mg/kg IV): 39.7 s
- Duration of Pain Behavior ([3]; dose 10 mg/kg IV): 1.6 s
- Alterations in LFT [4]: ↔
- LFT: % upper normal range ALT serum levels [4]: <100%/<100%
- LFT: % upper normal range AST serum levels [4]: <100%/<100%

SMILES: C[C@@H](C(=O)Nc1cncc(-c2cnc(N3CCC[C@H]3C(F)(F)F)nc2)n1)n1cnc2c1c(=O)n(C)c(=O)n2C [Compound 5-T, (S)-2-(1,3-dimethyl-2,6-dioxo-1,2,3,6-tetrahydro-7H-purin-7-yl)-N-(6-(2-((S)-2-(trifluoromethyl)pyrrolidin-1-yl)pyrimidin-5-yl)pyrazin-2-yl)propanamide]
- solubility kinetic at 24 h [1, 6]: 7 µg/mL (≈ 12.9 µM)
- solubility kinetic at 24 h [1, 7]: 5 µg/mL (≈ 9.18 µM)
- pIC50 [2]: > 7.60
- inhibition of the AHR ([5]; 1 mg/Kg dose): 45%
- inhibition of the EAR ([5]; 1 mg/Kg dose): no effect on EAR
- inhibition of the LAR ([5]; 1 mg/Kg dose): 48%
- Average Early Airway Response (EAR) ([5]; 1 mg/Kg orally once a day, Control 1 175 ± 25): 171 ± 17
- Average Late Airway Response (LAR) ([5]; 1 mg/Kg orally once a day, Control 1 113 ± 4): 59 ± 1*^+
- Airway Hyperresponsiveness (AHR) ([5]; 1 mg/Kg orally once a day, Control 1 0.49 ± 0.04): 0.71 ± 0.01*^+
- inhibition of the AHR ([5]; 3 mg/Kg dose): 100%
- inhibition of the EAR ([5]; 3 mg/Kg dose): 51%
- inhibition of the LAR ([5]; 3 mg/Kg dose): 78%
- Average Early Airway Response (EAR) ([5]; 3 mg/Kg orally once a day, Control 2 195 ± 15): 95 ± 6
- Average Late Airway Response (LAR) ([5]; 3 mg/Kg orally once a day, Control 2 107 ± 5): 24 ± 1
- Airway Hyperresponsiveness (AHR) ([5]; 3 mg/Kg orally once a day, Control 2 0.41 ± 0.01): 0.92 ± 0.08
- inhibition of the AHR ([5]; 10 mg/Kg dose): 100%
- inhibition of the EAR ([5]; 10 mg/Kg dose): 72%
- inhibition of the LAR ([5]; 10 mg/Kg dose): 79%
- Average Early Airway Response (EAR) ([5]; 10 mg/Kg orally once a day, Control 2 195 ± 15): 55 ± 2*^
- Average Late Airway Response (LAR) ([5]; 10 mg/Kg orally once a day, Control 2 107 ± 5): 22 ± 3
- Airway Hyperresponsiveness (AHR) ([5]; 10 mg/Kg orally once a day, Control 2 0.41 ± 0.01): 1.00 ± 0.14
- inhibition of the average early airway response (EAR), compared to Comparative Compound 2 ([5]; at the doses tested): improved inhibition
- inhibition of the average late airway response (LAR) and the airway hyperresponsiveness (AHR) ([5]; doses 1, 3 and 10 mg/kg orally): dose dependent inhibition
